Experimental data as given in patent US20090017089A1, “Multiple active agents such as anthelmintics sustained release delivery device” (priority 2003, published 2009).

Experiments:
[1] = test system: resistant Trichostrongylus axei; assay: Trial 3: oral albendazole vs prototype albendazole bolus in adult ewes, worm count (abomasa); details: oral 5.0 mg/kg once
[2] = test system: immature flukes; details: in vivo; cited from earlier work
[3] = test system: albendazole resistant Trichostrongylus axei; assay: Trial 1: repeated oral dosing of albendazole in lambs, worm count (abomasa)
[4] = test system: resistant Cooperia spp.; assay: Trial 3: oral albendazole vs prototype albendazole bolus in adult ewes, worm count (small intestine); details: oral 5.0 mg/kg once
[5] = test system: resistant Haemonchus Contortus; assay: Trial 3: oral albendazole vs prototype albendazole bolus in adult ewes, worm count (abomasa); details: oral 5.0 mg/kg once
[6] = test system: albendazole resistant Cooperia spp.; assay: Trial 1: repeated oral dosing of albendazole in lambs, worm count (small intestine)
[7] = test system: albendazole resistant Nematodirus spp.; assay: as above
[8] = test system: adult liver fluke; details: oral, Coles & Stafford 2001; cited from earlier work
[9] = test system: resistant Ostertagia circumcincta; assay: Trial 3: oral albendazole vs prototype albendazole bolus in adult ewes, worm count (abomasa); details: oral 5.0 mg/kg once
[10] = test system: resistant parasites; details: Farm 4 from Anderson et al, 1991; cited from earlier work
[11] = test system: albendazole resistant Ostertagia Circumcincta; assay: Trial 1: repeated oral dosing of albendazole in lambs, worm count (abomasa)
[12] = test system: abamectin-resistant Ostertagia circumcincta; assay: Trial 2: repeated oral dosing of abamectin in lambs, worm count; type: in vivo
[13] = test system: multiple drug resistant Ostertagia circumcincta; assay: Magnum combination bolus trial in sheep, efficacy based on worm counts; type: in vivo; details: single standard oral doses
Procedure: (§1) This concept has again been tested for the present invention by constructing and testing for efficacy a Magnum bolus releasing 2 actives simultaneously. A prototype sheep bolus designed to release 5 mg/kg of albendazole and 0.18 mg/kg abamectin in a 50 kg sheep was tested against two species of multiple drench resistant parasites. Trial lambs ranged in weight from 48-55.5 kg.

[14] = test system: multiple drug resistant Trichostrongylus colubriformis; assay: as above; type: in vivo; details: single standard oral doses
Procedure: as §1

[15] = test system: abamectin-resistant Cooperia spp.; assay: Trial 2: repeated oral dosing of abamectin in lambs, worm count; type: in vivo
[16] = test system: abamectin-resistant Trichostrongylus colubriformis; assay: as above; type: in vivo
[17] = test system: parasites of goats; details: Pomroy et al, 1992; cited from earlier work

Compound: CCCSc1ccc2nc(NC(=O)OC)[nH]c2c1 [Alb, albendazole]
- % reduction in worm count Trichostrongylus axei [1]: 91.8%
- efficacy against immature flukes [2]: ineffective
- % reduction in worm count Trichostrongylus axei ([3]; 1.75 mg/kg for 7 days): 87.5%
- % reduction in worm count Trichostrongylus axei ([3]; 2.5 mg/kg for 7 days): 90.2%
- % reduction in worm count Trichostrongylus axei ([3]; 3.75 mg/kg for 7 days): 96.8%
- % reduction in worm count Trichostrongylus axei ([3]; 5 mg/kg for 7 days): 97.6%
- % reduction in worm count Trichostrongylus axei ([3]; 5 mg/kg once): 82.9%
- % reduction in worm count Cooperia spp. [4]: 59.3%
- % reduction in worm count Haemonchus Contortus [5]: 91.4%
- % reduction in worm count Cooperia spp. ([6]; 1.75 mg/kg for 7 days): 57.1%
- % reduction in worm count Cooperia spp. ([6]; 2.5 mg/kg for 7 days): 67.5%
- % reduction in worm count Cooperia spp. ([6]; 3.75 mg/kg for 7 days): 83.3%
- % reduction in worm count Cooperia spp. ([6]; 5 mg/kg for 7 days): 86.9%
- % reduction in worm count Cooperia spp. ([6]; 5 mg/kg once): 36.9%
- % reduction in worm count Nematodirus spp. ([7]; 1.75 mg/kg for 7 days): 58.9%
- % reduction in worm count Nematodirus spp. ([7]; 2.5 mg/kg for 7 days): 69.0%
- % reduction in worm count Nematodirus spp. ([7]; 3.75 mg/kg for 7 days): 88.1%
- % reduction in worm count Nematodirus spp. ([7]; 5 mg/kg for 7 days): 73.9%
- % reduction in worm count Nematodirus spp. ([7]; 5 mg/kg once): 71.2%
- level of efficacy against adult liver fluke [8]: variable and less than desirable
- % reduction in worm count Ostertagia circumcincta [9]: 59.3%
- Efficacy [10]: 73%
- % reduction in worm count Ostertagia circumcincta ([11]; 1.75 mg/kg for 7 days): 74.9%
- % reduction in worm count Ostertagia circumcincta ([11]; 2.5 mg/kg for 7 days): 57.0%
- % reduction in worm count Ostertagia circumcincta ([11]; 3.75 mg/kg for 7 days): 70.9%
- % reduction in worm count Ostertagia circumcincta ([11]; 5 mg/kg for 7 days): 92.3%
- % reduction in worm count Ostertagia circumcincta ([11]; 5 mg/kg once): 42.7%

Compound: c1ccc([C@H]2CN3CCSC3=N2)cc1 [Levamisole]
- Efficacy [10]: 88%

Compound: CO/N=C1\C[C@]2(C[C@@H]3C[C@@H](C/C=C(\C)C[C@@H](C)/C=C/C=C4\CO[C@@H]5[C@H](O)C(C)=C[C@@H](C(=O)O3)[C@]45O)O2)O[C@H](/C(C)=C/C(C)C)[C@H]1C [Moxidectin]
- % reduction in worm count Ostertagia circumcincta ([12]; 0.2 mg/kg once): 76.3%
- Efficacy based on worm counts Ostertagia circumcincta [13]: 59.9
- Efficacy based on worm counts Trichostrongylus colubriformis [14]: 90.6
- % reduction in worm count Cooperia spp. ([15]; 0.2 mg/kg once): 99.1%
- % reduction in worm count Trichostrongylus colubriformis ([16]; 0.2 mg/kg once): 72.5%

Compound: COC(=O)Nc1nc2ccc([S+]([O-])c3ccccc3)cc2[nH]1 (centres unmarked) [oxfendazole]
- Efficacy [17]: 82%

Compound: abamectin
- % reduction in worm count Ostertagia circumcincta ([12]; 0.07 mg/kg for 7 days): 77.2%
- % reduction in worm count Ostertagia circumcincta ([12]; 0.113 mg/kg for 7 days): 89.3%
- % reduction in worm count Ostertagia circumcincta ([12]; 0.18 mg/kg for 7 days): 96.4%
- % reduction in worm count Ostertagia circumcincta ([12]; 0.2 mg/kg once): 45.0%
- % reduction in worm count Cooperia spp. ([15]; 0.07 mg/kg for 7 days): 99.1%
- % reduction in worm count Cooperia spp. ([15]; 0.113 mg/kg for 7 days): 99.6%
- % reduction in worm count Cooperia spp. ([15]; 0.18 mg/kg for 7 days): 100.0%
- % reduction in worm count Cooperia spp. ([15]; 0.2 mg/kg once): 94.9%
- % reduction in worm count Trichostrongylus colubriformis ([16]; 0.07 mg/kg for 7 days): 47.3%
- % reduction in worm count Trichostrongylus colubriformis ([16]; 0.113 mg/kg for 7 days): 55.3%
- % reduction in worm count Trichostrongylus colubriformis ([16]; 0.18 mg/kg for 7 days): 77.1%
- % reduction in worm count Trichostrongylus colubriformis ([16]; 0.2 mg/kg once): 60.7%

Compound: ivermectin
- Efficacy [17]: 27%
